Measured values taken from US7671054B1, “Reverse-turn mimetics and method relating thereto” (Choongwae Pharma Corporation, priority 2001, dated 2010).

Tested on: TCF4/β-catenin transcription (TOPFlash) in SW480 cells
Experiment: Reporter gene assay (TOPFlash luciferase)
Assay type: cell-based
Settings: Homo sapiens, SW480, Table 4; Reporter gene assay as described in Example 6; read-out: IC50
Protocol: SW480 cells were transfected with the usage of Superfect™ transfect reagent (Qiagen, 301307). Cells were trypsinized briefly 1 day before transfection and plated on 6 well plate (5×10^5 cells/well) so that they were 50-80% confluent on the day of transfection.
Four microgram (TOPFlash) and one microgram (pRL-null) of DNAs were diluted in 150 μl of serum-free medium, and 30 μl of Superfect™ transfect reagent was added. The DNA-Superfect mixture was incubated at room temperature for 15 min, and then, 1 ml of 10% FBS DMEM was added to this complex for an additional 3 hours of incubation. While complexes were forming, cells were washed with PBS twice without antibiotics.
The DNA-Superfect™ transfect reagent complexes were applied to the cells before incubating at 37° C. at 5% CO2 for 3 hours. After incubation, recovery medium with 10% FBS was added to bring the final volume to 1.18 ml. After 3 hours incubation, the cells were harvested and reseeded to 96 well plate (3×10^4 cells/well). After overnight incubation at 37° C. at 5% CO2, the cells were treated with Compound A for 24 hours. Finally, the activity was checked by means of luciferase assay (Promega, E1960).

## C[C@@H](c1ccc(Cl)c2cccnc12)N1CC2N(C(=O)CN(C)N2C(=O)NCc2ccccc2)[C@@H](Cc2ccc(O)cc2)C1=O (stereo partly drawn) [Compound 196]
  IC50: 27.4 ± 2.8 µM

## CN1CC(=O)N2C(CN(Cc3ccc(F)cc3)C(=O)[C@@H]2Cc2ccc(O)cc2)N1C(=O)NCc1ccccc1 (stereo partly drawn) [Compound 10]
  IC50: 4 µM

## CN1CC(=O)N2[C@@H](Cc3ccc(O)cc3)C(=O)N(Cc3cccc4ccccc34)C[C@@H]2N1C(=O)Nc1ccc(C(F)(F)F)cc1 [Compound 4]
  IC50: 11.8 µM

## C#CCN1CC(=O)N2[C@@H](Cc3ccc(O)cc3)C(=O)N(Cc3ccc(Cl)c(N(C)C)c3)C[C@@H]2N1C(=O)NCc1ccccc1 [Compound 110]
  IC50: 3.8 ± 0.6 µM

## C=CCN1CC(=O)N2[C@@H](Cc3ccc(OP(=O)(O)O)cc3)C(=O)N(Cc3ccc(OC)cc3)C[C@@H]2N1C(=O)NCc1ccccc1 [Compound 209]
  IC50: 1.9 ± 0.5 µM

## CN1CC(=O)N2C(CN(Cc3ccccc3F)C(=O)[C@@H]2Cc2ccc(O)cc2)N1C(=O)NCc1ccccc1 (stereo partly drawn) [Compound 8]
  IC50: 14.5 µM

## CCN1CC(=O)N2[C@@H](Cc3ccc(O)cc3)C(=O)N(Cc3cccc4cccnc34)C[C@@H]2N1C(=O)NCc1ccccc1 [Compound 121]
  IC50: 3 ± 0.4 µM

## CN1CC(=O)N2C(Cc3ccc(O)cc3)C(=O)N(Cc3cccc4ccccc34)CC2N1C(=O)NCc1ccc(Cl)c(Cl)c1 (stereo not drawn) [Compound 3]
  IC50: 13.9 µM

## CN1CC(=O)N2[C@@H](Cc3ccc(O)cc3)C(=O)N(Cc3cccc(OCCN4CCOCC4)c3)C[C@@H]2N1C(=O)NCc1ccccc1 [Compound 130]
  IC50: 6.1 ± 0.4 µM

## C#CCn1cc2c(CN3C[C@H]4N(C(=O)CN(C)N4C(=O)NCc4ccccc4)[C@@H](Cc4ccc(O)cc4)C3=O)cccc2n1 [Compound 96]
  IC50: 8.1 ± 0.9 µM

## CN(C1CC1)C1CC=CC=C1CN1C[C@H]2N(C(=O)CN(C)N2C(=O)NCc2ccccc2)[C@@H](Cc2ccc(O)cc2)C1=O (stereo partly drawn) [Compound 53]
  IC50: 9 ± 1.5 µM

## CCCN1CC(=O)N2[C@@H](Cc3ccc(O)cc3)C(=O)N(Cc3cccc(N4CCOCC4)c3)C[C@@H]2N1C(=O)NCc1ccccc1 [Compound 124]
  IC50: 6.4 ± 0.4 µM

## CN1CC(=O)N2[C@@H](Cc3ccc(O)cc3)C(=O)N(Cc3cccc4nccnc34)C[C@@H]2N1C(=O)NCc1ccccc1 [Compound 34]
  IC50: 4.4 µM

## C#CCN1CC(=O)N2[C@@H](Cc3ccc(O)cc3)C(=O)N(Cc3ccc(F)cc3F)[C@@H](C)[C@@H]2N1C(=O)NCc1ccccc1 [Compound 111]
  IC50: 7.2 ± 0.8 µM

## C=CCN1CC(=O)N2[C@@H](Cc3ccc(O)cc3)C(=O)N(Cc3cccc4c3OCC4)C[C@@H]2N1C(=O)NCc1ccccc1 [Compound 205]
  IC50: 3.5 ± 0.8 µM

## C=CCN1CC(=O)N2C(Cc3ccc(O)cc3)C(=O)N(Cc3ccc(F)cc3F)CC2N1C(=O)NCc1ccccc1 (stereo not drawn) [Compound 170]
  IC50: 1.5 ± 0.5 µM

## C[C@H](c1ccc(F)c(N(C)C)c1)N1C[C@H]2N(C(=O)CN(C)N2C(=O)NCc2ccccc2)[C@@H](Cc2ccc(O)cc2)C1=O [Compound 59]
  IC50: 5.3 ± 1.3 µM

## CN1CC(=O)N2C(CN(Cc3cc(F)ccc3F)C(=O)[C@@H]2Cc2ccc(O)cc2)N1C(=O)NCc1ccccc1 (stereo partly drawn) [Compound 14]
  IC50: 17.7 µM

## C#CCn1cc2cccc(CN3C[C@H]4N(C(=O)CN(C)N4C(=O)NCc4ccccc4)[C@@H](Cc4ccc(O)cc4)C3=O)c2n1 [Compound 106]
  IC50: 2.6 ± 0.2 µM

## C=CCN1CC(=O)N2[C@@H](Cc3ccc(O)cc3)C(=O)N(Cc3ccc(F)c(F)c3)C[C@@H]2N1C(=O)NCc1ccccc1 [Compound 178]
  IC50: 1.2 ± 0.1 µM

## CN1CC(=O)N2C(CN(Cc3ccc(F)cc3F)C(=O)[C@@H]2Cc2ccc(O)cc2)N1C(=O)NCc1ccccc1 (stereo partly drawn) [Compound 13]
  IC50: 6.4 µM

## CN1CC(=O)N2[C@@H](Cc3ccc(O)cc3)C(=O)N(Cc3cccc4nn(CCN5CCOCC5)cc34)C[C@@H]2N1C(=O)NCc1ccccc1 [Compound 100]
  IC50: 2.7 ± 0.3 µM

## C#CCN1CC(=O)N2[C@@H](Cc3ccc(O)cc3)C(=O)N(Cc3cccc4c3cnn4CCN3CCOCC3)C[C@@H]2N1C(=O)NCc1ccccc1 [Compound 112]
  IC50: 4.1 ± 0.8 µM

## C=CCN1CC(=O)N2[C@@H](Cc3ccc(O)c(F)c3)C(=O)N(Cc3ccc(F)cc3)C[C@@H]2N1C(=O)NCc1ccccc1 [Compound 186]
  IC50: 3.6 ± 0.3 µM
